From patent EP0565593B1, “REDUCING PESTICIDAL INTERACTIONS IN CROPS” (priority 1990, dated 1992)
Like-named read-outs stand apart in the source and are kept apart here.

Tests used:
Corn [1] = assay: Field trials, PPI, PRE and POE herbicide applications with terbufos (Example 7); type: in vivo
Source text: This example summarizes the results of one series of field trials from a plurality of locations and soil types wherein test chemicals were applied in various modes including pre-plant incorporated (PPI), post emergence (POE) and preemergence (PRE) with and without a safener (antidote). Test Chemicals were Herbicide Nos 1, 2, 3 and 7-9; Insecticide No. 1 and Antidote No. 1.
In these trials Insecticide No. 1 (terbufos) was T-banded or furrow applied at labeled rates prior to planting corn. PPI herbicide treatments were applied prior to insecticide applications; PRE treatments were applied after the insecticide application either prior to or after seeding the corn. POE herbicide applications were made at 2 corn-growth stages, i.e., early post (EP) at the 2-3 leaf stage and late post (LP) at the 4-7 leaf stage. Plots were small plot with 3 replications in a randomized complete block design. In the PRE and PPI herbicide treatments, Antidote No. 1 was applied as a tankmix in both treatments. In the POE herbicide treatments, that antidote was applied as a tank mix with the herbicide at the EP and LP stages.

VELE (velvetleaf) = assay: Greenhouse test Procedure II (Example 4; Table 4); type: in vivo, Abutilon theophrasti; conditions: 3 weeks
Protocol: Containers were filled and compacted with a fumigated silt loam top soil to a depth of about 1.3 cm from the top of the container. A first container was designated as an untreated control, a second container was designated as a herbicide control, and a third container was designated as a herbicide + antidote test container. Each of the containers was seeded with a crop species. A measured amount of herbicide dispersed or dissolved in acetone was applied to a measured quantity of soil. To this same quantity of soil treated with herbicide, there was added a measured amount of antidote dispersed or dissolved in acetone. The quantity of soil treated with the herbicide and antidote was thoroughly mixed to incorporate the herbicide and antidote in the soil uniformly. The seed bed in the third container of soil was covered with the soil treated with the herbicide and antidote and the container was leveled. For each test series, the seed beds of the first and second containers were likewise covered by soil layers. the cover layer of the first container was not treated with herbicide or antidote.
This procedure is the same as Procedure I, but modified in the manner that after incorporation of the chemicals (herbicide, antidote and insecticide), the containers with the covered seedbed were treated with an initial overhead irrigation equivalent to 0.6 cm rainfall, then subsequently sub-irrigated as required on greenhouse benches.
The procedure used in this test was Procedure No. 2 above. Formulations of herbicide, insecticide and antidote were applied via track sprayer sequentially onto cover layers, incorporated into the soil which was spread over seedbeds, then irrigated from above with 0.6 cm water. Observations were made three (3) weeks after treatment.

SJCA = assay: Greenhouse test Procedure IV: herbicide, biocide and antidote PPI, weed SJCA (Examples 53-55; Tables 52-54); type: in vivo; conditions: all PPI; for % Inhibition SJCA: Herbicide No. 1, rate printed as '-'
Source text: The test in this example paralleled that in Example 51, except the procedure was according to Procedure IV above and the herbicides used were No. 1 (MON-12000); No. 21 (XRD-498) and, again, No. 18 (PURSUIT); the biocide was, again, MOCAP®. Observations were taken thirteen (13) days after PPI treatment with biocide and antidote.
This test was identical to that in Example 52, except for use of a different biocide, DIAZINON (Biocide No. 5, a nematicide and soil insecticide).
This test was also identical to that in the preceding two examples, except that the biocide was malathion (No. 7, an insecticide).
This test was identical to the preceding ones, except the biocide was DPX-43898 (No. 6, active ingredient in FORTRESS® insecticide, a soil insecticide). Also, the observation time was fourteen (14) days after PPI initiation.

Corn [2] = assay: whole plant or invertebrate; conditions: Zea mays, iv, 312 h

## CC1(C)OC(c2ccco2)CN1C(=O)C(Cl)Cl (centres unmarked) [Antidote No. 1, Oxazolidine, 3-(dichloroacetyl)-2,2-dimethyl-5-(2-furanyl)-]
Corn [1]; antidote tankmix POE with Herbicide No. 7, Insecticide No. 1
  safening of insecticide interactions: effectively safened
Corn [1]; mean of nine locations, PRE and PPI, Insecticide No. 1, 1:1 Herbicide No. 1:Antidote No. 1 and 30:1 Herbicide No. 2:Antidote No. 1
  crop injury: reduced from non-commercially-acceptable to commercially-acceptable levels
VELE (velvetleaf); Antidote 1 0.07 + Herbicide 1 0.07 kg/Ha
  % Injury VELE: 8%
VELE (velvetleaf); Antidote 1 0.07 + Herbicide 4 0.07 kg/Ha
  % Injury VELE: 0%
VELE (velvetleaf); Antidote 1 0.07 + Herbicide 5 0.07 kg/Ha
  % Injury VELE: 68%
VELE (velvetleaf); Antidote 1 0.07 + Herbicide 6 0.07 kg/Ha
  % Injury VELE: 5%
VELE (velvetleaf); Antidote 1 0.14 + Herbicide 1 0.14 kg/Ha
  % Injury VELE: 43%
VELE (velvetleaf); Antidote 1 0.14 + Herbicide 4 0.14 kg/Ha
  % Injury VELE: 30%
VELE (velvetleaf); Antidote 1 0.14 + Herbicide 5 0.14 kg/Ha
  % Injury VELE: 68%
VELE (velvetleaf); Antidote 1 0.14 + Herbicide 6 0.14 kg/Ha
  % Injury VELE: 28%
VELE (velvetleaf); Insecticide 2 3.36 + Antidote 1 0.014 + Herbicide 1 0.14 kg/Ha
  % Injury VELE: 53%
VELE (velvetleaf); Insecticide 2 3.36 + Antidote 1 0.07 + Herbicide 1 0.07 kg/Ha
  % Injury VELE: 23%
VELE (velvetleaf); Insecticide 2 3.36 + Antidote 1 0.07 + Herbicide 4 0.07 kg/Ha
  % Injury VELE: 0%
VELE (velvetleaf); Insecticide 2 3.36 + Antidote 1 0.07 + Herbicide 5 0.07 kg/Ha
  % Injury VELE: 55%
VELE (velvetleaf); Insecticide 2 3.36 + Antidote 1 0.07 + Herbicide 6 0.07 kg/Ha
  % Injury VELE: 15%
VELE (velvetleaf); Insecticide 2 3.36 + Antidote 1 0.14 + Herbicide 4 0.14 kg/Ha
  % Injury VELE: 78%
VELE (velvetleaf); Insecticide 2 3.36 + Antidote 1 0.14 + Herbicide 5 0.14 kg/Ha
  % Injury VELE: 83%
VELE (velvetleaf); Insecticide 2 3.36 + Antidote 1 0.14 + Herbicide 6 0.14 kg/Ha
  % Injury VELE: 40%

## COC(=O)c1c(Cl)nn(C)c1S(=O)(=O)NC(=O)Nc1nc(OC)cc(OC)n1 [Herbicide No. 1, N-[(4,6-dimethoxypyrimidin-2-yl)aminocarbonyl]-3-chloro-4-methoxycarbonyl-5-sulfonamide, reference compound]
SJCA; 312 h, Table 52, Herbicide No. 1 0.14 Kg/Ha, where applied Biocide No. 5 8.96 kg/Ha and antidote 4.48 Kg/Ha, observed 13 days after treatment
  inhibition at 140 g/ha: 70%
SJCA; Table 53, where applied Biocide No. 7 8.96 kg/Ha and antidote 4.48 Kg/Ha, observed 13 days after treatment
  % Inhibition SJCA: 75%
SJCA; Table 54, where applied Biocide No. 6 8.96 kg/Ha and antidote 4.48 Kg/Ha, observed 14 days after PPI initiation
  % Inhibition SJCA: 65%
Corn [1]; mean of five locations, soil-applied insecticide prior to planting
  interaction with Insecticide No. 1 after POE herbicide: insignificant interaction
VELE (velvetleaf); Herbicide 1 0.07 kg/Ha
  % Injury VELE: 20%
VELE (velvetleaf); Herbicide 1 0.14 kg/Ha
  % Injury VELE: 67%
VELE (velvetleaf); Insecticide 2 3.36 + Herbicide 1 0.07 kg/Ha
  % Injury VELE: 10%
VELE (velvetleaf); Insecticide 2 3.36 + Herbicide 1 0.14 kg/Ha
  % Injury VELE: 20%
Corn [2]; read-out: % Inhibition Corn, Herb. No. 1 0.14 kg/Ha alone, PPI, 13 days after planting
  inhibition at 140 g/ha: 10%
Corn [2]; read-out: % Inhibition Corn, Table 51, Herbicide No. 1 0.14 Kg/Ha, where applied Biocide No. 8 8.96 kg/Ha and antidote 4.48 Kg/Ha, all PPI, observed 13 days after treatment
  inhibition at 140 g/ha: 0%
Corn [2]; read-out: % Inhibition Corn, Table 52, Herbicide No. 1 0.14 Kg/Ha, where applied Biocide No. 5 8.96 kg/Ha and antidote 4.48 Kg/Ha, all PPI, observed 13 days after treatment
  inhibition at 140 g/ha: 0%
